Publication PMC9229894, “In Silico, In Vitro, and Pharmacokinetic Studies of UBMC-4, a Potential Novel Compound for Treating against Trypanosoma cruzi” (Pathogens, 2022)
Where two headings read alike, the source gives them in different places.

Experiments:
[1] = test system: T. cruzi trypomastigotes; assay: Flow cytometry of apoptosis-like markers in trypomastigotes; type: cell-based, Trypanosoma cruzi; settings: 10 µM; for DNA damage (hypodiploidy), % of trypomastigote population: time not given
Experimental: Apoptosis-like markers were analyzed by triple staining using 3,3′-dihexyloxacarbocyanine (DiOC6), propidium iodide (PI), and Hoechst from Thermo Fisher Scientific to determine the change of mitochondrial membrane potential (ΔΨm), cell membrane damage, and impairment of cell cycle, respectively. All readings were performed on a BD FACSCanto II 4/2/2 Sys IVD flow cytometer, and data obtained were analyzed using the FlowJo7.6.2 software. Differences between treatments were determined by a two-way ANOVA for multiple comparisons with 95% significance using GraphPad Prism 8. In all cases, 20 µL of parasites (5 × 10^6/mL) were stained per treatment with 300 µL of Hanks’ balanced saline solution (HBSS) and 10 µL of the staining mix containing […], 0.5 µL of 70 nM DiOC6, and 0.5 µL of 10 mg/mL Hoechst. Subsequently, parasites were incubated at room temperature for 15 min until reading.
The same markers mentioned above were used for T. cruzi trypomastigotes. A total of 1 × 10^6 trypomastigotes were centrifuged at 1800 RCF for 5 min to remove the culture medium. Parasites were cultured at […] in PBS or 10% FBS-supplemented DMEM with or without 10 µM UBMC-4, 10 µM chloroquine, and 10 µM UBMC-4/chloroquine for 2 h and 5 h. All experiments were compared to a culture setup using bz as control compound. Three biological replicates and three experimental replicates were applied to data collected at each time point for experimental conduction of every portion of the study. In all cases, ANOVA was applied for multiple comparisons after determining that data were normal.

[2] = Cytotoxicity, MTT method, CaCo2; type: cell-based; settings: human, Caco-2, read-out: LC50 median lethal concentration CaCo2
Experimental: (§1) Cytotoxicity of UBMC-4 was tested in HepG2, CaCo2, and huMDM cell lines according to the effect on cell growth determined by the MTT microenzimatic method, as described by others. Briefly, 2.0 × 10^4 U-937 and huMDM or 2.5 × 10^4 HepG2 and CaCo2 cells were dispensed in 200 µL into each well of a 96-well tissue culture plate containing the corresponding culture medium. Then, 100 µL/well of each compound at a concentration of […] were added and plates were incubated at 37 °C, 5% CO2. After 72 h of incubation, 20 μL of MTT (Sigma-Aldrich, St Louis, MO, USA) were added to each well and plates were incubated for 3 h at 37 °C, 5% CO2. […] The concentration of formazan was determined at 570 nm in a spectrophotometer (Varioskan Flash Multimode Reader, Thermo Scientific, Waltham, MA, USA). […] Cytotoxicity was determined according to the percentages of viability and cell growth inhibition obtained for each compound, bz, doxorubicin, or medium alone. Non-specific absorbance was corrected by subtracting the OD of the blank (culture medium). Percentages of mortality were calculated using equation, as follows: % mortality = 100 − [(O.D. of treated cells)/(O.D. of non-treated cells)] × 100. The half maximal effective concentration (EC50) was calculated by the linear regression model Probit using Graphpad Prism software.

[3] = Cytotoxicity, MTT method, huMDM; type: cell-based; settings: human, monocyte-derived macrophages (huMDM), read-out: LC50 median lethal concentration huMDM
Experimental: as §1

[4] = Solubility remark; type: physicochemical
[5] = test system: T. cruzi Tulahuen strain amastigotes; assay: Trypanocidal activity in intracellular amastigotes (β-galactosidase, U937 macrophages); type: cell-based, Trypanosoma cruzi; settings: Trypanosoma cruzi
Experimental: To obtain intracellular amastigotes, 2.5 × 10^6 U937 differentiated macrophage cells were infected with T. cruzi epimastigotes (Tulahuen strain producing β-galactosidase, 24 h of growing) in a 5:1 parasite/cell ratio. To calculate EC50, 100 μL of UBMC-4 were added at four serial dilutions ([…]) to each well, and benznidazole (bz) was added at an initial concentration of 20 µg/mL and 6 serial 2-fold dilutions were used to determine its EC50 as a control of the effectiveness of the experiment, in addition to the control of the viability of the parasites (cells without drug treatment), from the blank of the culture medium (medium without cells), in duplicate. The cells were incubated for 72 h at 37 °C with 5% of CO2. All medium was removed and 100 µL of substrate for β-galactosidase diluted in PBS (chlorophenol β-d-galactopyranoside-CPRG network; Sigma-Aldrich, St Louis, MO, USA, at 100 mM and 0.1% Nonidet P-40) was added to each well and incubated at 37 °C for 3 h. The amount of chlorophenol red released was read at 570 nm in a spectrophotometer (Varioskan TM). Infected cells were used as negative control while infected cells treated with benznidazole were used as a positive control (trypanocidal activity) for the assay. RPMI-1640 medium was used as a negative control. Non-specific absorbance was corrected by subtracting the OD of the blank sample. Determinations were done in triplicate in at least two independent experiments.
The trypanocidal activity was determined based on the percentage of decrease of amastigotes determined using equation, as follows: % reduction of infection = 100 − (O.D. of treated infected cells)/(O.D. of non-treated infected cells) × 100. The half maximal effective concentration (EC50) was calculated by the linear regression model Probit using Graphpad Prism software.

[6] = Toxicity / tolerability in mice; type: in vivo

In the case of `Oc1ccc(-c2nc(-c3ccc4sc5ccccc5c4c3)c(-c3ccccc3)[nH]2)cc1` [UBMC-4, 4-(4-dibenzo-[b,d]-thien-2-yl-5-phenyl-1H-imidazol-2-yl)phenol], the “mitochondrial membrane potential change” value ([1]; normal nutritional conditions, 2 h) is reported as “remained intact (no hyper- or depolarization)”, the “cell membrane permeability, % of trypomastigote population” value ([1]; normal nutritional conditions, 5 h) is reported as 2.2% and the “DNA damage (hypodiploidy), % of trypomastigote population” value ([1]; normal nutritional conditions) is reported as 23%. The “Ψm depolarization, % of trypomastigotes” value ([1]; nutritional stress, 2 h) was 32%, the “cell membrane permeability, % of trypomastigote population” value ([1]; nutritional stress, 5 h) was 36% and the “Ψm depolarization, % of trypomastigotes” value ([1]; nutritional stress, 5 h) was 40%. The “DNA damage (hypodiploidy), % of trypomastigote population” value ([1]; nutritional stress) was 54%, the CC50 at 72 h [2] was over 40 µM and the CC50 at 72 h [3] was over 40 µM. For the same compound, the solubility [4] was “slight solubility problems”, the EC50 ([5]; TULAHUEN, U-937, 72 h, read-out: EC50 half maximal effective concentration for T. cruzi amastigotes) was 1.85 ± 1 µM and the EC50 ([5]; U-937, intracellular amastigotes, Tulahuen strain, same value in mass units, read-out: EC50 for T. cruzi amastigotes) was 0.774 µg/mL. The “tolerability in preliminary toxicity study” value ([6]; 200 mg/kg administered once and 100 mg/kg every 24 h for 30 days) was “significant tolerability”, the acute toxicity ([6]; mice of the pharmacokinetic assay, 200 mg/kg oral single dose) was “did not exhibit acute toxicity” and the death of mice ([6]; mouse, in vivo, po, 200 mg/kg) was “did not cause death to any of the mice”.
